ChEMBL document CHEMBL4507317, “Data for DCP probe BAY-899” (2021)

Assays:
[1] = system: Tyrosine-protein kinase ABL1 (Homo sapiens), P00519 [Y253F]; details: Compound concentration 1000.0 nM
[2] = target: Ankyrin repeat and protein kinase domain-containing protein 1 (Homo sapiens) (UniProt Q8NFD2); details: Compound concentration 1000.0 nM
[3] = target: Bone morphogenetic protein receptor type-1B (Homo sapiens) (UniProt O00238); details: Compound concentration 1000.0 nM
[4] = target: Peripheral plasma membrane protein CASK (Homo sapiens) (UniProt O14936); details: Compound concentration 1000.0 nM
[5] = target: Cyclin-dependent kinase 4 (Homo sapiens) (UniProt P11802); details: Compound concentration 1000.0 nM
[6] = target: Discoidin domain-containing receptor 2 (Homo sapiens) (UniProt Q16832); details: Compound concentration 1000.0 nM
[7] = target: Dual specificity tyrosine-phosphorylation-regulated kinase 1A (Homo sapiens) (UniProt Q13627); details: Compound concentration 1000.0 nM
[8] = system: Epidermal growth factor receptor (Homo sapiens), P00533 [L861Q]; details: Compound concentration 1000.0 nM
[9] = target: Mitogen-activated protein kinase 1 (Homo sapiens) (UniProt P28482); details: Compound concentration 1000.0 nM
[10] = target: Tyrosine-protein kinase Fes/Fps (Homo sapiens) (UniProt P07332); details: Compound concentration 1000.0 nM
[11] = system: Receptor-type tyrosine-protein kinase FLT3 (Homo sapiens), P36888 [D835Y]; details: Compound concentration 1000.0 nM
[12] = target: Homeodomain-interacting protein kinase 2 (Homo sapiens) (UniProt Q9H2X6); details: Compound concentration 1000.0 nM
[13] = target: Tyrosine-protein kinase JAK1 (Homo sapiens) (UniProt P23458); details: Compound concentration 1000.0 nM
[14] = system: Mast/stem cell growth factor receptor Kit (Homo sapiens), P10721 [D816H]; details: Compound concentration 1000.0 nM
[15] = system: Mast/stem cell growth factor receptor Kit (Homo sapiens), P10721 [V559D]; details: Compound concentration 1000.0 nM
[16] = target: LIM domain kinase 1 (Homo sapiens) (UniProt P53667); details: Compound concentration 1000.0 nM
[17] = target: Leukocyte tyrosine kinase receptor (Homo sapiens) (UniProt P29376); details: Compound concentration 1000.0 nM
[18] = target: Dual specificity mitogen-activated protein kinase kinase 2 (Homo sapiens) (UniProt P36507); details: Compound concentration 1000.0 nM
[19] = target: Mitogen-activated protein kinase kinase kinase 11 (Homo sapiens) (UniProt Q16584); details: Compound concentration 1000.0 nM
[20] = target: Serine/threonine-protein kinase MRCK alpha (Homo sapiens) (UniProt Q5VT25); details: Compound concentration 1000.0 nM
[21] = target: Serine/threonine-protein kinase 24 (Homo sapiens) (UniProt Q9Y6E0); details: Compound concentration 1000.0 nM
[22] = target: Serine/threonine-protein kinase mTOR (Homo sapiens) (UniProt P42345); details: Compound concentration 1000.0 nM
[23] = target: Myosin-IIIa (Homo sapiens) (UniProt Q8NEV4); details: Compound concentration 1000.0 nM
[24] = target: Myosin-IIIb (Homo sapiens) (UniProt Q8WXR4); details: Compound concentration 1000.0 nM
[25] = target: Serine/threonine-protein kinase Nek11 (Homo sapiens) (UniProt Q8NG66); details: Compound concentration 1000.0 nM
[26] = target: Serine/threonine-protein kinase NIM1 (Homo sapiens) (UniProt Q8IY84); details: Compound concentration 1000.0 nM
[27] = target: Serine/threonine-protein kinase PAK 5 (Homo sapiens) (UniProt Q9P286); details: Compound concentration 1000.0 nM
[28] = target: Phosphorylase b kinase regulatory subunit alpha, liver isoform (Homo sapiens) (UniProt P46019); details: Compound concentration 1000.0 nM
[29] = system: Phosphatidylinositol 4,5-bisphosphate 3-kinase catalytic subunit alpha isoform (Homo sapiens), P42336 [E545A]; details: Compound concentration 1000.0 nM
[30] = system: Phosphatidylinositol 4,5-bisphosphate 3-kinase catalytic subunit alpha isoform (Homo sapiens), P42336 [E545K]; details: Compound concentration 1000.0 nM
[31] = system: Phosphatidylinositol 4,5-bisphosphate 3-kinase catalytic subunit alpha isoform (Homo sapiens), P42336 [H1047Y]; details: Compound concentration 1000.0 nM
[32] = target: Serine/threonine-protein kinase PLK4 (Homo sapiens) (UniProt O00444); details: Compound concentration 1000.0 nM
[33] = target: Serine/threonine-protein kinase D1 (Homo sapiens) (UniProt Q15139); details: Compound concentration 1000.0 nM
[34] = target: Receptor-interacting serine/threonine-protein kinase 2 (Homo sapiens) (UniProt O43353); details: Compound concentration 1000.0 nM
[35] = target: Ribosomal protein S6 kinase alpha-4 (Homo sapiens) (UniProt O75676); details: Compound concentration 1000.0 nM
[36] = target: Ribosomal protein S6 kinase alpha-5 (Homo sapiens) (UniProt O75582); details: Compound concentration 1000.0 nM
[37] = target: Serine/threonine-protein kinase 33 (Homo sapiens) (UniProt Q9BYT3); details: Compound concentration 1000.0 nM
[38] = target: Serine/threonine-protein kinase 35 (Homo sapiens) (UniProt Q8TDR2); details: Compound concentration 1000.0 nM
[39] = target: Tyrosine-protein kinase Tec (Homo sapiens) (UniProt P42680); details: Compound concentration 1000.0 nM
[40] = target: Non-receptor tyrosine-protein kinase TNK1 (Homo sapiens) (UniProt Q13470); details: Compound concentration 1000.0 nM
[41] = target: Testis-specific serine/threonine-protein kinase 1 (Homo sapiens) (UniProt Q9BXA7); details: Compound concentration 1000.0 nM
[42] = target: Mitogen-activated protein kinase kinase kinase 20 (Homo sapiens) (UniProt Q9NYL2); details: Compound concentration 1000.0 nM
[43] = target: D(3) dopamine receptor (Homo sapiens) (UniProt P35462); details: Compound concentration 10.0 uM
[44] = target: Histamine H1 receptor (Homo sapiens) (UniProt P35367); details: Compound concentration 10.0 uM
[45] = target: Muscarinic acetylcholine receptor M5 (Homo sapiens) (UniProt P08912); details: Compound concentration 10.0 uM

Tyrosine-protein kinase Fes/Fps (Homo sapiens), sequence (P07332 whole entry): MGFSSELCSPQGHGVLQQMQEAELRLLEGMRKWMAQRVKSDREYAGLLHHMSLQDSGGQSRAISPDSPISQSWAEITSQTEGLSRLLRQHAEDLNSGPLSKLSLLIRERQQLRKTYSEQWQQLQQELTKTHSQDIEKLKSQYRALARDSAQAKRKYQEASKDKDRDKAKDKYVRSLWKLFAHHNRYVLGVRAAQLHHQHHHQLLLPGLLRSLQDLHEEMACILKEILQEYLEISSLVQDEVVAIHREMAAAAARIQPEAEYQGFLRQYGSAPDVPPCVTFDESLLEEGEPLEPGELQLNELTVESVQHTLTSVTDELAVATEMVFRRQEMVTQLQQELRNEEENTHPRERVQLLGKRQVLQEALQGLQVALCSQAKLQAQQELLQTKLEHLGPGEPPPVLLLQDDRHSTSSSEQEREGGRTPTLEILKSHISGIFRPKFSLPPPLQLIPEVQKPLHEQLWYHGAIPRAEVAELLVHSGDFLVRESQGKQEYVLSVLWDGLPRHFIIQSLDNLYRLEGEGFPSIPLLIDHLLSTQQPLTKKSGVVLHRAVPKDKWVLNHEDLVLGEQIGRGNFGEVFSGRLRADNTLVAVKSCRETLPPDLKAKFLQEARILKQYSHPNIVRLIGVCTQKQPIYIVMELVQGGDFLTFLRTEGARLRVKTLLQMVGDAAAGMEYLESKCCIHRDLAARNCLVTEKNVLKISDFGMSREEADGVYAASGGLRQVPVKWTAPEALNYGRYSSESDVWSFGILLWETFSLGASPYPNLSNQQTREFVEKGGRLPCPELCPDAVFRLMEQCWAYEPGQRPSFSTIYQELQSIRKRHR
Mitogen-activated protein kinase 1 (Homo sapiens), sequence (P28482 whole entry): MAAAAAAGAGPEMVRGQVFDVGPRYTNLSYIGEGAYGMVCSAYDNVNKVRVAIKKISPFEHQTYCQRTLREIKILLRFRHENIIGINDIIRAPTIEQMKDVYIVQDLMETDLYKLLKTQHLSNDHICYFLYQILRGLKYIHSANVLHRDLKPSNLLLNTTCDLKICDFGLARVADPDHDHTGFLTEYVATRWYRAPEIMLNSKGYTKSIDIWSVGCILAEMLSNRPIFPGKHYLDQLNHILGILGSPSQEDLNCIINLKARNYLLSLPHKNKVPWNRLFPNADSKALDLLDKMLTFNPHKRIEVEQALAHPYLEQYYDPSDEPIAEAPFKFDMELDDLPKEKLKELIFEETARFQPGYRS
Myosin-IIIa (Homo sapiens), sequence (Q8NEV4 whole entry): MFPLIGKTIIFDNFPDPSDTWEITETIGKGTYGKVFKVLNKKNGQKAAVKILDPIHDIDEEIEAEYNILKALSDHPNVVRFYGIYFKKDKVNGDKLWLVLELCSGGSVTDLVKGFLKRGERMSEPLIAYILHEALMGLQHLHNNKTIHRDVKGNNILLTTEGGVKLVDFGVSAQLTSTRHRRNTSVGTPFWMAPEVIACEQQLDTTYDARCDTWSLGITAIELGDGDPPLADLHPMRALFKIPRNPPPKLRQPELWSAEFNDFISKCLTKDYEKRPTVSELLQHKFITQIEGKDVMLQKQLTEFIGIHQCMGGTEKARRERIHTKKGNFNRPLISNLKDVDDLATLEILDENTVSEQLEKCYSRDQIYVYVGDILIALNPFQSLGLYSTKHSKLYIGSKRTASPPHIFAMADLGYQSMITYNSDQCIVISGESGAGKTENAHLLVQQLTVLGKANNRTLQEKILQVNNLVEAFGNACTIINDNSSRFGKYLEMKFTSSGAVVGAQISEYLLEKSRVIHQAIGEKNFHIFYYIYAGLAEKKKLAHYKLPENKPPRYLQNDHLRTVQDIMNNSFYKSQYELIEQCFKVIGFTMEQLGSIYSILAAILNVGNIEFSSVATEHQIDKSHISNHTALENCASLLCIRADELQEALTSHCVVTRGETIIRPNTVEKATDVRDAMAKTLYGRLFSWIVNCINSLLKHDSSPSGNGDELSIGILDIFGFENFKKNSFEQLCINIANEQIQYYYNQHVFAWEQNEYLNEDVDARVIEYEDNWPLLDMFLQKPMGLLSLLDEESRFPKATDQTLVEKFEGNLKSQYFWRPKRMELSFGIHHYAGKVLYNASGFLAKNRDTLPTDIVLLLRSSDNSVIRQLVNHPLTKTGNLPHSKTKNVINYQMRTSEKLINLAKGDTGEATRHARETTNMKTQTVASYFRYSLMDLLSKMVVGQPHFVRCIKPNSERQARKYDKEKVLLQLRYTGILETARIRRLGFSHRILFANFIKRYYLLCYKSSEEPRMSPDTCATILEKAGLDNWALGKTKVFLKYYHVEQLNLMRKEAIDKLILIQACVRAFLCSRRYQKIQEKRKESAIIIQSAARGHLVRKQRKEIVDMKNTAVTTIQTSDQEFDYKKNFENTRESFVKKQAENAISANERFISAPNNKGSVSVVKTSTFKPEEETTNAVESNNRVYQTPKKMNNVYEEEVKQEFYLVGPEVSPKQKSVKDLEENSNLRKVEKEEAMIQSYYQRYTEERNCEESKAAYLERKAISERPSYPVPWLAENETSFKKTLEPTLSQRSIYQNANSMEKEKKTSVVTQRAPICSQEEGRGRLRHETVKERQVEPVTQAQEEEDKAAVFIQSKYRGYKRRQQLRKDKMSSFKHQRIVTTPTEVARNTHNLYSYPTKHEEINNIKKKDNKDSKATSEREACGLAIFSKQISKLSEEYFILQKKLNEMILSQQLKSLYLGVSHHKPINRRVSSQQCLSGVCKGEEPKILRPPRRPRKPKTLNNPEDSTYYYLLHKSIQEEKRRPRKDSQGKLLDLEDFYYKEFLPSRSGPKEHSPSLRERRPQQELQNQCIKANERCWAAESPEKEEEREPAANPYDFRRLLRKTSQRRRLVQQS
Serine/threonine-protein kinase 24 (Homo sapiens), sequence (Q9Y6E0 whole entry, looked up): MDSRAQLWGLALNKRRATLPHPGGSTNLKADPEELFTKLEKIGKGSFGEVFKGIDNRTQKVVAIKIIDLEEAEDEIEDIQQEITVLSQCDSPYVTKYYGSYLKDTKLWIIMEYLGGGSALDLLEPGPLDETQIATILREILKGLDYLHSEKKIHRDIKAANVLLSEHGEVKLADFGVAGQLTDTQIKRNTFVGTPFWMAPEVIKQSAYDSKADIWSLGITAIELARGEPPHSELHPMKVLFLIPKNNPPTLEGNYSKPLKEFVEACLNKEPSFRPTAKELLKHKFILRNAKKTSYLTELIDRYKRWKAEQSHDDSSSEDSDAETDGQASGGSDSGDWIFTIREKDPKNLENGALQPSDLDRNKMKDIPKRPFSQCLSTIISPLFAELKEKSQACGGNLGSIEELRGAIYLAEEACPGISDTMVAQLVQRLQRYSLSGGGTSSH
Serine/threonine-protein kinase D1 (Homo sapiens), sequence (Q15139 whole entry): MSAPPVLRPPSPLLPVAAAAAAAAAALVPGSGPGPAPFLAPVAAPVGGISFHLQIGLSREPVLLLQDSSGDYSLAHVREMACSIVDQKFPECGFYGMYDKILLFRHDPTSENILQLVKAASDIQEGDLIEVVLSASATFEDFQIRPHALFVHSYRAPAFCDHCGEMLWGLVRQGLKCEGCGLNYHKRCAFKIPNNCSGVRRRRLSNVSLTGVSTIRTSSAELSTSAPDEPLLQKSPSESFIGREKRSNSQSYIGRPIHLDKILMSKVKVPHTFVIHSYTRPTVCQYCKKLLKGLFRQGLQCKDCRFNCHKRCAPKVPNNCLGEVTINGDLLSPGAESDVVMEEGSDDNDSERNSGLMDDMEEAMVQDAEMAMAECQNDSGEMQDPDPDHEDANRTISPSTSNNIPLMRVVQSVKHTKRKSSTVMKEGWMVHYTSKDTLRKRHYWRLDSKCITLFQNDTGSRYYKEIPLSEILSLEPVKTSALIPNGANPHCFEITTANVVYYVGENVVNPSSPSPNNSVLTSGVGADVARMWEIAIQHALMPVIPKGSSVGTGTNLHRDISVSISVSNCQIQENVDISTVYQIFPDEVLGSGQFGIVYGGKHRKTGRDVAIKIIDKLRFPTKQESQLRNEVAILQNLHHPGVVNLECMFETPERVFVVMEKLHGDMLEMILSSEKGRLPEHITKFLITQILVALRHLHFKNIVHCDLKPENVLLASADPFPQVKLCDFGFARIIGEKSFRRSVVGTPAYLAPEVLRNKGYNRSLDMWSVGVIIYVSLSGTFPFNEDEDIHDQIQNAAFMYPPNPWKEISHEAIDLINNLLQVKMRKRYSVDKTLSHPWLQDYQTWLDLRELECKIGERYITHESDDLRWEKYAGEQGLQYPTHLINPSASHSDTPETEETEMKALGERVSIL
Receptor-interacting serine/threonine-protein kinase 2 (Homo sapiens), sequence (O43353 whole entry): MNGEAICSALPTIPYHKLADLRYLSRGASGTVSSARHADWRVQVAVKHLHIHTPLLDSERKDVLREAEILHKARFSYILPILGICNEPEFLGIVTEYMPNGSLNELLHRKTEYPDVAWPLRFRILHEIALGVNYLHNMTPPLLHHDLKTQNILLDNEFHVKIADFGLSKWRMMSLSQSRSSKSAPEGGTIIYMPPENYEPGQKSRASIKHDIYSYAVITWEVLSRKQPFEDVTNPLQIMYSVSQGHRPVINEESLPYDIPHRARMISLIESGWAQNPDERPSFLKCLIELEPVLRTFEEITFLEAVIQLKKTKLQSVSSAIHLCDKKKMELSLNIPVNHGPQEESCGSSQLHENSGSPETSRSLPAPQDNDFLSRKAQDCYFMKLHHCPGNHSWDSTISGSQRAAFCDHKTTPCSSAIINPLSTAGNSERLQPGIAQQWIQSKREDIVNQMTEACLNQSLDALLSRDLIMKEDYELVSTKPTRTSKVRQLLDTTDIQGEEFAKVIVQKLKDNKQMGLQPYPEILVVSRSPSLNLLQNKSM
Testis-specific serine/threonine-protein kinase 1 (Homo sapiens), sequence (Q9BXA7 whole entry): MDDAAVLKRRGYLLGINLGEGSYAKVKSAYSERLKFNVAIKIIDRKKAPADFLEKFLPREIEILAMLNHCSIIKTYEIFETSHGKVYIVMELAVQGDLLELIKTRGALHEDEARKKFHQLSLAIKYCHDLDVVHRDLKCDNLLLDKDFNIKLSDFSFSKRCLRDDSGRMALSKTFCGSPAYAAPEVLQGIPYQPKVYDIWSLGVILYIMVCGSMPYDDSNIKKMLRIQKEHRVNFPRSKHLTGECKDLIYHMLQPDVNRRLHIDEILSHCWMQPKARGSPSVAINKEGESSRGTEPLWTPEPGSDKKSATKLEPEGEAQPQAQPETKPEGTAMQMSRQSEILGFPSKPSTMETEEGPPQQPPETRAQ

O=C(Nc1cnc(Oc2ccc(F)cc2)nc1)N1CCc2ncccc2[C@@H]1c1ccc(F)cc1 [BAY-899]
inactive: residual activity [1] 100% | residual activity [2] 100% | residual activity [3] 98% | residual activity [4] 94% | residual activity [5] 100% | residual activity [6] 100% | residual activity [7] 100% | residual activity [8] 85% | residual activity [9] 100% | residual activity [10] 100% | residual activity [11] 100% | residual activity [12] 91% | residual activity [13] 86% | residual activity [14] 96% | residual activity [15] 100% | residual activity [16] 99% | residual activity [17] 93% | residual activity [18] 93% | residual activity [19] 83% | residual activity [20] 96% | residual activity [21] 77% | residual activity [22] 100% | residual activity [23] 100% | residual activity [24] 100% | residual activity [25] 100% | residual activity [26] 90% | residual activity [27] 95% | residual activity [28] 96% | residual activity [29] 98% | residual activity [30] 63% | residual activity [31] 100% | residual activity [32] 100% | residual activity [33] 100% | residual activity [34] 93% | residual activity [35] 89% | residual activity [36] 85% | residual activity [37] 69% | residual activity [38] 71% | residual activity [39] 89% | residual activity [40] 97% | residual activity [41] 100% | residual activity [42] 100% | inhibition [43] -4.36% | inhibition [44] 5.89% | inhibition [45] 12%

O=C(Nc1ccc(Oc2ccc(F)cc2)cc1)N1CCc2ncccc2[C@H]1c1ccc(F)cc1 [BAY-897]
inactive: residual activity [1] 82% | residual activity [2] 92% | residual activity [3] 87% | residual activity [4] 100% | residual activity [5] 94% | residual activity [6] 100% | residual activity [7] 95% | residual activity [8] 83% | residual activity [9] 100% | residual activity [10] 100% | residual activity [11] 99% | residual activity [12] 79% | residual activity [13] 94% | residual activity [14] 89% | residual activity [15] 100% | residual activity [16] 85% | residual activity [17] 86% | residual activity [18] 100% | residual activity [19] 78% | residual activity [20] 94% | residual activity [21] 93% | residual activity [22] 100% | residual activity [23] 100% | residual activity [24] 83% | residual activity [25] 100% | residual activity [26] 80% | residual activity [27] 100% | residual activity [28] 100% | residual activity [29] 100% | residual activity [30] 73% | residual activity [31] 100% | residual activity [32] 94% | residual activity [33] 94% | residual activity [34] 96% | residual activity [35] 73% | residual activity [36] 95% | residual activity [37] 50% | residual activity [38] 80% | residual activity [39] 86% | residual activity [40] 96% | residual activity [41] 87% | residual activity [42] 100% | inhibition [43] -2.66% | inhibition [44] 15.9% | inhibition [45] -1.7%
